One assay has as its target galectin-3 (Homo sapiens, UniProt P17931). Nature of the assay: Fluorescence anisotropy assay, affinity for galectin-3. The class given is binding. The following applies: compound as inhibitor of the interaction between galectin and a fluorescein tagged saccharide probe; read-out: Gal-3 Kd. On the procedure:
(§1) The affinity of Example 1-39 for galectins were determined by a fluorescence anisotropy assay where the compound was used as an inhibitor of the interaction between galectin and a fluorescein tagged saccharide probe as described Sarme, P., Kahl-Knutsson, B., Huflejt, M., Nilsson, U. J., and Leffler H. (2004) Fluorescence polarization as an analytical tool to evaluate galectin-ligand interactions. Anal. Biochem. 334: 36-47, (Sarme et al., 2004) and Monovalent interactions of Galectin-1 By Salomonsson, Emma; Larumbe, Amaia; Tejler, Johan; Tullberg, Erik; Rydberg, Hanna; Sundin, Anders; Khabut, Areej; Frejd, Torbjorn; Lobsanov, Yuri D.; Rini, James M.; et al, From Biochemistry (2010), 49(44), 9518-9532, (Salomonsson et al., 2010).

In a further assay the target is galectin-1 (Homo sapiens, UniProt P09382). Nature of the assay: Fluorescence anisotropy assay, affinity for galectin-1. The class given is binding. The following applies: compound as inhibitor of the interaction between galectin and a fluorescein tagged saccharide probe; read-out: Gal-1 Kd. On the procedure: as §1
galectin-1, sequence (P09382 whole entry): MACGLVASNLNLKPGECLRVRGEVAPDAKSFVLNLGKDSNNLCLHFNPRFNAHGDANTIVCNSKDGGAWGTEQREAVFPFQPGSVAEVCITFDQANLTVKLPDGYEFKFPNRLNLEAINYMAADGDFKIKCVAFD

galectin-3, sequence (P17931 whole entry): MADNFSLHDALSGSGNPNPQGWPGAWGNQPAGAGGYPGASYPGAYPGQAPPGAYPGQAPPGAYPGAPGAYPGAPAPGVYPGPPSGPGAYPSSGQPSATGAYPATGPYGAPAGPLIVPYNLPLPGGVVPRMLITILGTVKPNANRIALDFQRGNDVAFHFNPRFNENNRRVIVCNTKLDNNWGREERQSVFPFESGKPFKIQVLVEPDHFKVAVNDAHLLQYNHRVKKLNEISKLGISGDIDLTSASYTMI

For orientation: Kd means the equilibrium constant for the complex coming apart. `COC1C(n2cc(-c3nc(C)cs3)nn2)[C@@H](O)C(CO)O[C@H]1c1ccnn1-c1cc(Cl)ccc1C(F)(F)F` (stereo partly drawn) [Example 4, 5-Chloro-1-{5-{3-deoxy-3-[4-(4-methylthiazol-2-yl)-1H-1,2,3-triazol-1-yl]-2-O-methyl-β-D-galactopyranosyl}-1H-1,2-pyrazol-1-yl}-2-(trifluoromethyl)benzene]: the figures for the Kd at galectin-3 and at galectin-1 were 3260 nM and 260 nM, respectively.
Consider `COC1C(n2cc(-c3nc(Cl)cs3)nn2)[C@@H](O)C(CO)O[C@H]1c1cc(Br)nn1-c1cc(Cl)ccc1C(F)(F)F` (stereo partly drawn) [Example 26, 1-{3-Bromo-5-{3-[4-(4-chlorothiazol-2-yl)-1H-1,2,3-triazol-1-yl]-3-deoxy-2-O-methyl-β-D-galactopyranosyl}-1H-1,2-pyrazol-1-yl}-5-chloro-2-(trifluoromethyl)benzene], for which the equilibrium dissociation constant (Kd) amounted to 750 nM on galectin-3 and 66 nM on galectin-1.
The like results for `COC1C(n2cc(-c3nc(Cl)cs3)nn2)[C@@H](O)C(CO)O[C@H]1c1ccnn1-c1cc(Cl)cnc1C(F)(F)F` (stereo partly drawn) [Example 32, 3-{5-{3-[4-(4-Chlorothiazol-2-yl)-1H-1,2,3-triazol-1-yl]-3-deoxy-2-O-methyl-β-D-galactopyranosyl}-1H-1,2-pyrazol-1-yl}-5-chloro-2-(trifluoromethyl)pyridine] were, in that order, 650 nM and 50 nM.
In the case of `COC1C(n2cc(-c3nc(Cl)cs3)nn2)[C@@H](O)C(CO)O[C@H]1c1cc(C(=O)O)nn1-c1cc(Cl)ccc1C(F)(F)F` (stereo partly drawn) [Example 18, 1-{3-Carboxy-5-{3-[4-(4-chlorothiazol-2-yl)-1H-1,2,3-triazol-1-yl]-3-deoxy-2-O-methyl-β-D-galactopyranosyl}-1H-1,2-pyrazol-1-yl}-5-chloro-2-(trifluoromethyl)benzene], the Kd on galectin-3 stood at 320 nM; on galectin-1, 420 nM.
Taken in the same sequence, the figures for `COC1C(n2cc(-c3nc(Cl)cs3)nn2)[C@@H](O)C(CO)O[C@H]1c1ccnn1-c1cc(Cl)c(F)cc1C(F)(F)F` (stereo partly drawn) [Example 22, 1-{5-{3-[4-(4-Chlorothiazol-2-yl)-1H-1,2,3-triazol-1-yl]-3-deoxy-2-O-methyl-β-D-galactopyranosyl}-1H-1,2-pyrazol-1-yl}-5-chloro-4-fluoro-2-(trifluoromethyl)benzene] were 850 nM and 43 nM.
With `COC1C(n2cc(-c3nc(Cl)cs3)nn2)[C@@H](O)C(CO)O[C@H]1c1cc(C(N)=O)nn1-c1cc(Cl)ccc1C(F)(F)F` (stereo partly drawn) [Example 39, 1-{3-Aminocarbonyl-5-{3-[4-(4-chlorothiazol-2-yl)-1H-1,2,3-triazol-1-yl]-3-deoxy-2-O-methyl-β-D-galactopyranosyl}-1H-1,2-pyrazol-1-yl}-5-chloro-2-(trifluoromethyl)benzene], the results for the Kd on galectin-3 and on galectin-1 were 320 nM and 200 nM, respectively.
Turning to `Cc1cc([C@@H]2OC(CO)[C@H](O)C(n3cc(-c4nc(Cl)cs4)nn3)C2O)n(-c2cc(Cl)ccc2C(F)(F)F)n1` (stereo partly drawn) [Example 9, 1-{5-{3-[4-(4-Chlorothiazol-2-yl)-1H-1,2,3-triazol-1-yl]-3-deoxy-β-D-galactopyranosyl}-3-methyl-1H-1,2-pyrazol-1-yl}-5-chloro-2-(trifluoromethyl)benzene], the results for the dissociation constant Kd on galectin-3 and at galectin-1 were 370 nM and 37 nM, respectively.
Regarding `COC1[C@@H](n2cc(-c3nc(Cl)cs3)nn2)[C@@H](O)C(CO)O[C@H]1c1ccnn1-c1cc(Br)c(F)cc1C(F)(F)F` (stereo partly drawn) [Example 23, 5-Bromo-1-{5-{3-[4-(4-chlorothiazol-2-yl)-1H-1,2,3-triazol-1-yl]-3-deoxy-2-O-methyl-β-D-galactopyranosyl}-1H-1,2-pyrazol-1-yl}-4-fluoro-2-(trifluoromethyl)benzene], the Kd at galectin-3 amounted to 290 nM; at galectin-1, 24 nM.
`COC1C(n2cc(-c3csc(O)n3)nn2)[C@@H](O)C(CO)O[C@H]1c1ccnn1-c1cc(Cl)ccc1C(F)(F)F` (stereo partly drawn) [Example 35, 5-Chloro-1-{5-{3-deoxy-3-[4-(2-hydroxythiazol-4-yl)-1H-1,2,3-triazol-1-yl]-2-O-methyl-β-D-galactopyranosyl}-1H-1,2-pyrazol-1-yl}-2-(trifluoromethyl)benzene]: the dissociation constant (Kd) on galectin-3 is 4200 nM; at galectin-1, 31 nM.
Take `CCc1cc([C@@H]2OC(CO)[C@H](O)C(n3cc(-c4nc(Cl)cs4)nn3)C2OC)n(-c2cc(Cl)ccc2C(F)(F)F)n1` (stereo partly drawn) [Example 30, 1-{5-{3-[4-(4-Chlorothiazol-2-yl)-1H-1,2,3-triazol-1-yl]-3-deoxy-2-O-methyl-β-D-galactopyranosyl}-3-ethyl-1H-1,2-pyrazol-1-yl}-5-chloro-2-(trifluoromethyl)benzene]: the values for the Kd on galectin-3 and on galectin-1 were 680 nM and 100 nM, respectively.
Take `COC1C(n2cc(-c3nc(Cl)cs3)nn2)[C@@H](O)C(CO)O[C@H]1c1cc(C)nn1-c1ccc2nc(C)sc2c1` (stereo partly drawn) [Example 15, 1-{5-{3-[4-(4-Chlorothiazol-2-yl)-1H-1,2,3-triazol-1-yl]-3-deoxy-2-O-methyl-β-D-galactopyranosyl}-3-methyl-1H-1,2-pyrazol-1-yl}-2-methylbenzothiazole]: the dissociation constant Kd on galectin-3 stood at 2000 nM; on galectin-1 it was 67 nM.
Taken in the same sequence, the figures for `COC1C(n2cc(-c3nccs3)nn2)[C@@H](O)C(CO)O[C@H]1c1cc(C)nn1-c1cc(Cl)ccc1C(F)(F)F` (stereo partly drawn) [Example 14, 5-Chloro-1-{5-{3-deoxy-2-O-methyl-3-[4-(2-thiazolyl)-1H-1,2,3-triazol-1-yl]-β-D-galactopyranosyl}-3-methyl-1H-1,2-pyrazol-1-yl}-2-(trifluoromethyl)benzene] were 5200 nM and 150 nM.
With `COC1C(n2cc(-c3nc(Cl)cs3)nn2)[C@@H](O)C(CO)O[C@H]1c1ccnn1-c1cc(Br)cnc1C(F)(F)F` (stereo partly drawn) [Example 33, 5-Bromo-3-{5-{3-[4-(4-chlorothiazol-2-yl)-1H-1,2,3-triazol-1-yl]-3-deoxy-2-O-methyl-β-D-galactopyranosyl}-1H-1,2-pyrazol-1-yl}-2-(trifluoromethyl)pyridine], the Kd at galectin-3 was found to be 530 nM; at galectin-1 it was 32 nM.
With `CCOC(=O)c1cc([C@@H]2OC(CO)[C@H](O)C(n3cc(-c4nc(Cl)cs4)nn3)C2OC)n(-c2cc(Cl)ccc2C(F)(F)F)n1` (stereo partly drawn) [Example 17, 1-{5-{3-[4-(4-Chlorothiazol-2-yl)-1H-1,2,3-triazol-1-yl]-3-deoxy-2-O-methyl-β-D-galactopyranosyl}-3-ethoxycarbonyl-1H-1,2-pyrazol-1-yl}-5-chloro-2-(trifluoromethyl)benzene], the Kd on galectin-3 was 880 nM; at galectin-1, 240 nM.
Regarding `COC1C(n2cc(-c3nc(Cl)cs3)nn2)[C@@H](O)C(CO)O[C@H]1c1cc(C#N)nn1-c1cc(Cl)ccc1C(F)(F)F` (stereo partly drawn) [Example 31, 1-{5-{3-[4-(4-Chlorothiazol-2-yl)-1H-1,2,3-triazol-1-yl]-3-deoxy-2-O-methyl-β-D-galactopyranosyl}-3-cyano-1H-1,2-pyrazol-1-yl}-5-chloro-2-(trifluoromethyl)benzene], the Kd amounted to 400 nM on galectin-3 and 71 nM at galectin-1.
In the case of `OCC1O[C@@H](c2ccnn2-c2cc(Br)ccc2C(F)(F)F)C(O)C(n2cc(-c3nc(Cl)cs3)nn2)[C@H]1O` (stereo partly drawn) [Example 19, 5-Bromo-1-{5-{3-[4-(4-chlorothiazol-2-yl)-1H-1,2,3-triazol-1-yl]-3-deoxy-β-D-galactopyranosyl}-1H-1,2-pyrazol-1-yl}-2-(trifluoromethyl)benzene], the Kd is 280 nM at galectin-3 and 43 nM at galectin-1.
On to `OCC1O[C@@H](c2ccnn2-c2cc(Br)c(F)cc2C(F)(F)F)C(O)[C@@H](n2cc(-c3nc(Cl)cs3)nn2)[C@H]1O` (stereo partly drawn) [Example 24, 5-Bromo-1-{5-{3-[4-(4-chlorothiazol-2-yl)-1H-1,2,3-triazol-1-yl]-3-deoxy-β-D-galactopyranosyl}-1H-1,2-pyrazol-1-yl}-4-fluoro-2-(trifluoromethyl)benzene], for which the equilibrium dissociation constant (Kd) at galectin-3 came to 200 nM; on galectin-1 it was 36 nM.
`OCC1O[C@@H](c2ccnn2-c2cc(Cl)ccc2C(F)(F)F)C(O)C(n2cc(-c3nccs3)nn2)[C@H]1O` (stereo partly drawn) [Example 5, 5-Chloro-1-{5-{3-deoxy-3-[4-(2-thiazolyl)-1H-1,2,3-triazol-1-yl]-β-D-galactopyranosyl}-1H-1,2-pyrazol-1-yl}-2-(trifluoromethyl)benzene]: the dissociation constant Kd at galectin-3 was 4830 nM; on galectin-1, 210 nM.
Taken in the same sequence, the figures for `COC1C(n2cc(-c3nc(Cl)cs3)nn2)[C@@H](O)C(CO)O[C@H]1c1cc(C(C)C)nn1-c1cc(Cl)ccc1C(F)(F)F` (stereo partly drawn) [Example 28, 1-{5-{3-[4-(4-Chlorothiazol-2-yl)-1H-1,2,3-triazol-1-yl]-3-deoxy-2-O-methyl-β-D-galactopyranosyl}-3-isopropyl-1H-1,2-pyrazol-1-yl}-5-chloro-2-(trifluoromethyl)benzene] were 320 nM and 180 nM.
On to `C=Cc1cc([C@@H]2OC(CO)[C@H](O)C(n3cc(-c4nc(Cl)cs4)nn3)C2OC)n(-c2cc(Cl)ccc2C(F)(F)F)n1` (stereo partly drawn) [Example 29, 1-{5-{3-[4-(4-Chlorothiazol-2-yl)-1H-1,2,3-triazol-1-yl]-3-deoxy-2-O-methyl-β-D-galactopyranosyl}-3-ethenyl-1H-1,2-pyrazol-1-yl}-5-chloro-2-(trifluoromethyl)benzene], for which the values for the dissociation constant (Kd) at galectin-3 and on galectin-1 were 480 nM and 190 nM, respectively.
In the case of `COC1C(n2cc(-c3ncc(Cl)s3)nn2)[C@@H](O)C(CO)O[C@H]1c1ccnn1-c1cc(Cl)ccc1C(F)(F)F` (stereo partly drawn) [Example 12, 1-{5-{3-[4-(5-Chlorothiazol-2-yl)-1H-1,2,3-triazol-1-yl]-3-deoxy-2-O-methyl-β-D-galactopyranosyl}-1H-1,2-pyrazol-1-yl}-5-chloro-2-(trifluoromethyl)benzene], the Kd on galectin-3 was 390 nM; at galectin-1 it was 24 nM.

The values above are taken from patent US20240132531A1, “NOVEL GALACTOSIDE INHIBITOR OF GALECTINS” (GALECTO BIOTECH AB, priority 2020, published 2024).
